From patent US12458643B2, “Antidepressant/anxiolytic drug in which PAC1 receptor antagonist is used” (KAGOSHIMA UNIVERSITY, priority 2020, dated 2025)

Legend:
Format in all cases: in vivo, mouse
[1] = system: normal mice; experiment: Prepulse inhibition (PPI) test in normal mice; settings: i.p. PA-915 30 mg/kg, ketamine 20 mg/kg
Experimental: A vehicle (V: 10% DMSO solution; dissolved in saline; n=13), PA-915 (PA: 30 mg/kg; n=10) or ketamine (K: 20 mg/kg; n=15) was intraperitoneally administered (0.1 mL/10 g) to male C57BL/6J mice (8 to 12 weeks old), which were then acclimatized to 65 dB background noise for 5 minutes in the apparatus. The mice were randomly stimulated 20 times with 50-msec 120 dB startle sound or with 20-msec 73 dB, 77 dB, and 81 dB prepulse sounds and 50-msec 120 dB startle sound 50 msec after each prepulse sound for 30 minutes from the completion of acclimatization. In this respect, the ratio of PPI was calculated according to [(Average startle amplitude without prepulse)−(Average startle amplitude of trial with prepulse)]/(Average startle amplitude without prepulse)×100. The data was indicated by mean±standard error. **P<0.01; *P<0.05 (One-way ANOVA followed by Tukey-Kramer test).

[2] = system: plasma corticosterone level; experiment: Repeated corticosterone administration, plasma corticosterone level (ELISA); settings: male mice, corticosterone 20 mg/kg s.c. 21 days; single i.p. PA-915 30 mg/kg, ketamine 20 mg/kg; next day
Experimental: A vehicle (0.5% carboxymethylcellulose solution) or corticosterone (20 mg/kg) was subcutaneously administered (0.1 mL/10 g) to male C57BL/6J mice (7 weeks old) for 21 days. A vehicle (10% DMSO solution; dissolved in saline; n=4), PA-915 (30 mg/kg; n=4) or ketamine (20 mg/kg; n=4) was intraperitoneally administered thereto (0.1 mL/10 g) 3 hours after administration on the 21st day. On the next day, the mice were subjected to the forced swim test and then decapitated, and systemic circulating blood was collected. The plasma corticosterone level was measured using Corticosterone ELISA kit from Cayman Chemical Company. Mice given the vehicle by repeated administration without repeated corticosterone administration were used as a control (n=4). The data was indicated by mean±standard error. **P<0.01 (One-way ANOVA followed by Tukey-Kramer test).

[3] = system: normal mice; experiment: Radial maze test in normal mice; settings: i.p. PA-915 30 mg/kg, ketamine 20 mg/kg, 30 minutes later, Day 10
Experimental: (3) The effects of PA-915 and ketamine on normal mice were evaluated by a radial maze test (test to evaluate spatial working memory by exploiting the foraging behavior of mice, and using an apparatus having 40 cm long, 10 cm wide and 12 cm high arms radially arranged in 8 directions).
On Day 0, male C57BL/6J mice (8 weeks old) were acclimatized to the apparatus by free exploration for 10 minutes in the apparatus in a laboratory (illuminance: 200 lx). On Days 1 and 2, the mice were allowed to explore only correct arms baited with a reward (food pellets, 5 mg) for 10 minutes. On Days 3 to 9, the mice were allowed to explore all the arms for 5 minutes at maximum until the mice finished the reward while the ends of the correct arms were baited with the reward. On Day 10, a vehicle (V: 10% DMSO solution; dissolved in saline; n=10), PA-915 (PA: 30 mg/kg; n=10) or ketamine (K: 20 mg/kg; n=10) was intraperitoneally administered thereto (0.1 mL/10 g). The mice were allowed to freely explore the maze from 30 minutes later, and the number of entries to the arms without the reward (the number of errors) was measured. During the test period, the absence of marked change in the body weights of the mice by dietary restriction was confirmed. The data was indicated by mean±standard error. **P<0.01 (One-way ANOVA followed by Tukey-Kramer test).

CNC1(c2ccccc2Cl)CCCCC1=O (stereo not drawn) [ketamine]
influence on prepulse inhibition (PPI ratio) [1]: caused prepulse inhibition deficits
effect on plasma corticosterone level [2]: decreased the plasma corticosterone level
influence on spatial working memory (number of errors, radial maze) [3]: decreased spatial cognitive function
